Measured values as given in patent US7700592B2, “α2C adrenoreceptor agonists” (Schering Corporation, priority 2005, dated 2010).

Target: T1, α2C receptor (Homo sapiens, UniProt P18825)
T1 sequence (P18825 1-462): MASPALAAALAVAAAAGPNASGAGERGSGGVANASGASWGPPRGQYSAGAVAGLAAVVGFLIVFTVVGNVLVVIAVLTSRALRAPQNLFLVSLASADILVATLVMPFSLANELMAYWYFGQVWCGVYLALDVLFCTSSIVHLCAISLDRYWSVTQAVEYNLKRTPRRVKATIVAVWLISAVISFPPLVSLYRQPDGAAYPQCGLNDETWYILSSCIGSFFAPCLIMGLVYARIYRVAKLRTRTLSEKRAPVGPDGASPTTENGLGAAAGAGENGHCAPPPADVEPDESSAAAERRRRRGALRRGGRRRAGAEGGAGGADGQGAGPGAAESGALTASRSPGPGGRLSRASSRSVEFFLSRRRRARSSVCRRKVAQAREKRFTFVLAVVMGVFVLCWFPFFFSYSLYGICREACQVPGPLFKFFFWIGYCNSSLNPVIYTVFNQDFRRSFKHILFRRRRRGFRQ
Experiment: GTPγS assay, efficacy agonist activity (Emax) for α2C
Assay type: biochemical
Conditions: active agonist = efficacy at α2C ≧30% Emax; functionally selective = additionally efficacy at α2A ≦30% Emax (GTPγS assay)
From the text: For the purposes of this present invention, a compound is defined to be an active agonist of the α2C receptor subtype if the compound's efficacy at the α2C receptor is ≧30% Emax (GTPγS assay). A compound is a functionally selective agonist of the α2C receptor subtype over the α2A receptor subtype if the compound's efficacy at the α2C receptor is ≧30% Emax (GTPγS assay) and its efficacy at the α2A receptor is ≦30% Emax (GTPγS assay).
Efficacy agonist activity values (Emax, GTPγS assay) for α2C were determined by following the general procedure detailed by Umland et al (“Receptor reserve analysis of the human α2c-adrenoceptor using [^35S]GTPγS and cAMP functional assays” European Journal of Pharmacology 2001, 411, 211-221). For the purposes of the present invention, a compound is defined to be an active agonist of the α2C receptor subtype if the compound's efficacy at the α2C receptor is ≧30% Emax (GTPγS assay). A compound is a functionally selective agonist of the α2C receptor subtype over the α2A receptor subtype if the compound's efficacy at the α2C receptor is […] Emax (GTPγS assay) and its efficacy at the α2A receptor is ≦30% Emax (GTPγS assay).

Structure (SMILES) | Efficacy agonist activity (Emax, GTPγS assay) for α2C: evaluated as active or functionally selective agonist
c1ccc2c(c1)OCCN2Cc1c[nH]cn1 [Compound 1] | active or functionally selective agonists of the α2C receptor subtype
O=[N+]([O-])c1ccc2c(c1)N(Cc1c[nH]cn1)CCO2 [Compound 3D] | active or functionally selective agonists of the α2C receptor subtype
Nc1ccc2c(c1)N(Cc1c[nH]cn1)CCO2 [Compound 3E] | active or functionally selective agonists of the α2C receptor subtype
COC(=O)Nc1ccc2c(c1)N(Cc1c[nH]cn1)CCO2 [Compound 3] | active or functionally selective agonists of the α2C receptor subtype
CNC(=O)Nc1ccc2c(c1)N(Cc1c[nH]cn1)CCO2 [Compound 5] | active or functionally selective agonists of the α2C receptor subtype
COC(=O)N(C)c1ccc2c(c1)N(Cc1c[nH]cn1)CCO2 [Compound 6E] | active or functionally selective agonists of the α2C receptor subtype
CNC(=O)N(C)c1ccc2c(c1)N(Cc1c[nH]cn1)CCO2 [Compound 6] | active or functionally selective agonists of the α2C receptor subtype
CCNC(=O)N(C)c1ccc2c(c1)N(Cc1c[nH]cn1)CCO2 [Compound 7] | active or functionally selective agonists of the α2C receptor subtype
CCOC(=O)N(C)c1ccc2c(c1)N(Cc1c[nH]cn1)CCO2 [Compound 8] | active or functionally selective agonists of the α2C receptor subtype
N#Cc1ccc2c(c1)N(Cc1c[nH]cn1)CCO2 [Compound 12] | active or functionally selective agonists of the α2C receptor subtype
N=C(N)c1ccc2c(c1)N(Cc1c[nH]cn1)CCO2 [Compound 13] | active or functionally selective agonists of the α2C receptor subtype
CSc1ccc2c(c1)N(Cc1c[nH]cn1)CCO2 [Compound 14B] | active or functionally selective agonists of the α2C receptor subtype
CS(=O)(=O)c1ccc2c(c1)N(Cc1c[nH]cn1)CCO2 [Compound 14] | active or functionally selective agonists of the α2C receptor subtype
c1c[nH]c(-c2ccc3c(c2)N(Cc2c[nH]cn2)CCO3)c1 [Compound 15] | active or functionally selective agonists of the α2C receptor subtype
O=[N+]([O-])c1cc(F)c2c(c1)N(Cc1c[nH]cn1)CCO2 [Compound 19D] | active or functionally selective agonists of the α2C receptor subtype
COC(=O)Nc1cc(F)c2c(c1)N(Cc1c[nH]cn1)CCO2 [Compound 19] | active or functionally selective agonists of the α2C receptor subtype
COC(=O)Nc1cc(Cl)c2c(c1)N(Cc1c[nH]cn1)CCO2 [Compound 20] | active or functionally selective agonists of the α2C receptor subtype
COC(=O)Nc1cc2c(cc1F)OCCN2Cc1c[nH]cn1 [Compound 21] | active or functionally selective agonists of the α2C receptor subtype

Structure (SMILES) | Efficacy agonist activity (Emax, GTPγS assay) for α2C: evaluated as active or functionally selective agonist
O=[N+]([O-])c1ccc2c(n1)N(Cc1c[nH]cn1)CCO2 [Compound 22] | active or functionally selective agonists of the α2C receptor subtype
Nc1ccc2c(c1)N(Cc1c[nH]cn1)CCS2 [Compound 24D] | active or functionally selective agonists of the α2C receptor subtype
COC(=O)Nc1ccc2c(c1)N(Cc1c[nH]cn1)CCS2 [Compound 24] | active or functionally selective agonists of the α2C receptor subtype
c1ccc2c(c1)SCCN2Cc1c[nH]cn1 [Compound 25B] | active or functionally selective agonists of the α2C receptor subtype
c1ccc2c(c1)NCCN2Cc1c[nH]cn1 [Compound 26A] | active or functionally selective agonists of the α2C receptor subtype
COC(=O)N1CCN(Cc2c[nH]cn2)c2ccccc21 [Compound 26B] | active or functionally selective agonists of the α2C receptor subtype
CN1CCN(Cc2c[nH]cn2)c2ccccc21 [Compound 26] | active or functionally selective agonists of the α2C receptor subtype
CC(=O)N1CCN(Cc2c[nH]cn2)c2ccccc21 [Compound 27E] | active or functionally selective agonists of the α2C receptor subtype
O=[N+]([O-])c1ccc2c(c1)N(Cc1c[nH]cn1)CCCO2 [Compound 28D] | active or functionally selective agonists of the α2C receptor subtype
COC(=O)Nc1ccc2c(c1)N(Cc1c[nH]cn1)CCCO2 [Compound 28] | active or functionally selective agonists of the α2C receptor subtype
CCOC(=O)Cc1ccc2c(c1)N(Cc1c[nH]cn1)CCO2 [Compound 29] | active or functionally selective agonists of the α2C receptor subtype
O=C(Cc1ccc2c(c1)N(Cc1c[nH]cn1)CCO2)NCc1ccccc1 [Compound 30] | active or functionally selective agonists of the α2C receptor subtype
O=[N+]([O-])c1ccc2c(c1)N(CCc1c[nH]cn1)CCO2 [Compound 37] | active or functionally selective agonists of the α2C receptor subtype
CCN(C(=O)NC)c1ccc2c(c1)N(Cc1c[nH]cn1)CCO2 [Compound 38] | active or functionally selective agonists of the α2C receptor subtype
CNC(=O)N(c1ccc2c(c1)N(Cc1c[nH]cn1)CCO2)C(C)C [Compound 46] | active or functionally selective agonists of the α2C receptor subtype
CNC(=O)Nc1ccc2c(n1)N(Cc1c[nH]cn1)CCO2 [Compound 51] | active or functionally selective agonists of the α2C receptor subtype
CCN(C(=O)OC)c1ccc2c(n1)N(Cc1c[nH]cn1)CCO2 [Compound 53] | active or functionally selective agonists of the α2C receptor subtype
Brc1ccc2c(n1)N(Cc1c[nH]cn1)CCO2 [Compound 54] | active or functionally selective agonists of the α2C receptor subtype
